Here are results for five compounds from US6635649B2, “Piperazinedione compounds” (priority 2000, dated 2003).

Each structure is given as a SMILES string.

Broadly, the melting point is the temperature of the solid-liquid transition. With `O=c1[nH]c(=Cc2ccco2)c(=O)[nH]c1=Cc1ccc(OCc2ccccc2)cn1` [Compound 7, 3-[(5-benzyloxypyridin-2-yl)methylidene]-6-[(furan-2-yl)methylidene]piperazine-2,5-dione], the melting point was 256 to 257 °C.

Compound `O=c1[nH]c(=Cc2ccc(OCc3ccccc3)cn2)c(=O)[nH]c1=Cc1ccccn1` [Compound 9, 3-[(5-benzyloxypyridin-2-yl)methylidene]-6-[(2-pyridinyl)methylidene]piperazine-2,5-dione] came in with a melting point of 248 to 250 °C.

`O=c1[nH]c(=Cc2ccc(OCc3ccccc3)cn2)c(=O)[nH]c1=Cc1ccc(OCc2ccccc2)cn1` [Compound 10, 3,6-di[(5-phenylmethoxypyridin-2-yl)methylidene]piperazine-2,5-dione] displayed a melting point of 283 to 328 °C.

Compound `CC(=O)N1CC(=O)NC(Cc2ccc(OCc3ccccc3)cn2)C1=O` (centres unmarked) [Compound 12, 1-acetyl-3-[(5-benzyloxypyridin-2-yl)methyl]piperazine-2,5-dione] had a melting point of 215 to 216 °C.

As to `O=C1NC(Cc2ccc(OCc3ccccc3)cn2)C(=O)NC1Cc1ccc(OCc2ccccc2)cn1` (centres unmarked) [Compound 13, 3,6-di[(5-benzyloxypyridin-2-yl)methyl]piperazine-2,5-dione], the melting point fell in the range of 228 to 231 °C.
